This test has as its target Recombinant human ULK1 (1-649) (Homo sapiens (Human), UniProt O75385). The experiment in a line: ULK1 ADP Glo kinase activity assay, new method (ULKtide peptide substrate). As to conditions: 25° C., 40 minutes, read-out: ULK1 biochemical IC50. In short, it runs like this: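 Kinase activity was read as ADP production (ADP-Glo, luminescence 30 min after detection reagent) following a 40-min, 25 °C reaction of Sf9-expressed GST-ULK1 (1-649) with ULKtide substrate and ATP. Compounds ran as 12-point series starting at 10 μM; four-parameter curve fitting versus DMSO wells gave IC50.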

pIC50: −log10 of the molar value.

Sequence of Recombinant human ULK1 (1-649) (O75385 1-649): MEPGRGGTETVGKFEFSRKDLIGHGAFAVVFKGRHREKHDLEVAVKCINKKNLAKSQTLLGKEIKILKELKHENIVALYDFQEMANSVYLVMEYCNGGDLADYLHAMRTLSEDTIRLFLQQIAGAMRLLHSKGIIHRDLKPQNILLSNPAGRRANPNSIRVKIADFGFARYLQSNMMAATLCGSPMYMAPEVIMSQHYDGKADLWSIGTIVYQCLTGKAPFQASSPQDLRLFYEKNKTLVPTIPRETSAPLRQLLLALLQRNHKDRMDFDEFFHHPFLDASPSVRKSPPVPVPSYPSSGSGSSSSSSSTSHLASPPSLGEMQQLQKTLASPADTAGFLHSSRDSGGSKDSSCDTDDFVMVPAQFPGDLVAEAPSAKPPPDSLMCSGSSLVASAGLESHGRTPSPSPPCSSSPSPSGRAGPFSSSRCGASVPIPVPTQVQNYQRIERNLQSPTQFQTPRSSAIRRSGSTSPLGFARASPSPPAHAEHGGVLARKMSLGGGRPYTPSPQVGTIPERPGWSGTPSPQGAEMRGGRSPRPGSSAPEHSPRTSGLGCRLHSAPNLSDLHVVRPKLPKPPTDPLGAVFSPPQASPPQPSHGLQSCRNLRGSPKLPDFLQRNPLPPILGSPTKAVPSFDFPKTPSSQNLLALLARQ

As to `CCc1cc(N2C[C@@H](C)N(C)[C@@H](C)C2)ccc1Nc1ncc(C(F)(F)F)c(-c2cc3c(s2)C(=O)N(C2CC2)CCS3(=O)=O)n1` [Example 367, 4-cyclopropyl-7-(2-((2-ethyl-4-((3S,5R)-3,4,5-trimethylpiperazin-1-yl)phenyl)amino)-5-(trifluoromethyl)pyrimidin-4-yl)-3,4-dihydrothieno[2,3-f][1,4]thiazepin-5(2H)-one 1,1-dioxide], the pIC50 (in general, −log10 of the IC50, conventionally taken in molar units) is at least 8.30.
`CCc1cc(N2C[C@@H](C)N[C@@H](C)C2)ccc1Nc1ncc(C(F)(F)F)c(-c2cc3c(s2)C(=O)N(C2COC2)CCS3(=O)=O)n1` [Example 368, 7-(2-((4-((3S,5R)-3,5-dimethylpiperazin-1-yl)-2-ethylphenyl)amino)-5-(trifluoromethyl)pyrimidin-4-yl)-4-(oxetan-3-yl)-3,4-dihydrothieno[2,3-f][1,4]thiazepin-5(2H)-one 1,1-dioxide]: the negative-log IC50 (pIC50) was at least 8.30.
On to `CCc1cc(N2C[C@@H](C)N(C)[C@@H](C)C2)ccc1Nc1ncc(C(F)(F)F)c(-c2cc3c(s2)C(=O)N(C2COC2)CCS3(=O)=O)n1` [Example 369, 7-(2-((2-ethyl-4-((3S,5R)-3,4,5-trimethylpiperazin-1-yl)phenyl)amino)-5-(trifluoromethyl)pyrimidin-4-yl)-4-(oxetan-3-yl)-3,4-dihydrothieno[2,3-f][1,4]thiazepin-5(2H)-one 1,1-dioxide], for which the pIC50 was at least 8.30.
`CCc1cc(N2C[C@H](C)N[C@@H](C)C2)ccc1Nc1ncc(C(F)(F)F)c(-c2cc3c(s2)C(=O)N(C2COC2)CCS3(=O)=O)n1` [Example 370, 7-(2-((4-((3S,5S)-3,5-dimethylpiperazin-1-yl)-2-ethylphenyl)amino)-5-(trifluoromethyl)pyrimidin-4-yl)-4-(oxetan-3-yl)-3,4-dihydrothieno[2,3-f][1,4]thiazepin-5(2H)-one 1,1-dioxide]: the pIC50 was at least 8.30.
As to `NC(=O)[C@@H]1CN(c2ccc(Nc3ncc(C(F)(F)F)c(-c4cc5c(s4)C(=O)N(C4COC4)CCS5(=O)=O)n3)c(C3CC3)c2)CCN1` [Example 371, (S)-4-(3-cyclopropyl-4-((4-(4-(oxetan-3-yl)-1,1-dioxido-5-oxo-2,3,4,5-tetrahydrothieno[2,3-f][1,4]thiazepin-7-yl)-5-(trifluoromethyl)pyrimidin-2-yl)amino)phenyl)piperazine-2-carboxamide], the pIC50 was at least 8.30.
`CN1CCN(c2ccc(Nc3ncc(C(F)(F)F)c(-c4cc5c(s4)C(=O)N(C4COC4)CCS5(=O)=O)n3)c(C3CC3)c2)C[C@H]1C(N)=O` [Example 372, (S)-4-(3-Cyclopropyl-4-((4-(4-(oxetan-3-yl)-1,1-dioxido-5-oxo-2,3,4,5-tetrahydrothieno[2,3-f][1,4]thiazepin-7-yl)-5-(trifluoromethyl)pyrimidin-2-yl)amino)phenyl)-1-methylpiperazine-2-carboxamide]: the pIC50 was at least 8.30.
As to `CNC(=O)[C@@H]1CN(c2ccc(Nc3ncc(C(F)(F)F)c(-c4cc5c(s4)C(=O)N(C4COC4)CCS5(=O)=O)n3)c(C3CC3)c2)CCN1` [Example 373, (S)-4-(3-cyclopropyl-4-((4-(4-(oxetan-3-yl)-1,1-dioxido-5-oxo-2,3,4,5-tetrahydrothieno[2,3-f][1,4]thiazepin-7-yl)-5-(trifluoromethyl)pyrimidin-2-yl)amino)phenyl)-N-methylpiperazine-2-carboxamide], the pIC50 was at least 8.30.
As to `C[C@@H]1CN(c2cc(C3CC3)c(Nc3ncc(C(F)(F)F)c(-c4cc5c(s4)C(=O)N(C4COC4)CCS5(=O)=O)n3)cn2)CCN1` [Example 374, (R)-7-(2-((4-cyclopropyl-6-(3-methylpiperazin-1-yl)pyridin-3-yl)amino)-5-(trifluoromethyl)pyrimidin-4-yl)-4-(oxetan-3-yl)-3,4-dihydrothieno[2,3-f][1,4]thiazepin-5(2H)-one 1,1-dioxide], the negative-log IC50 (pIC50) was at least 8.30.
Regarding `C[C@@H]1CN(c2ccc(Nc3ncc(C(F)(F)F)c(-c4cc5c(s4)C(=O)N(C4COC4)CCS5(=O)=O)n3)c(C3CC3)n2)CCN1` [Example 375, (R)-7-(2-((2-cyclopropyl-6-(3-methylpiperazin-1-yl)pyridin-3-yl)amino)-5-(trifluoromethyl)pyrimidin-4-yl)-4-(oxetan-3-yl)-3,4-dihydrothieno[2,3-f][1,4]thiazepin-5(2H)-one 1,1-dioxide], the negative-log IC50 (pIC50) is at least 8.30.
With `C[C@@H]1CN(c2ccc(Nc3ncc(C(F)(F)F)c(-c4cc5c(s4)C(=O)N(C4COC4)CCS5(=O)=O)n3)c(C3CC3)n2)CCN1C` [Example 376, (R)-7-(2-((2-cyclopropyl-6-(3,4-dimethylpiperazin-1-yl)pyridin-3-yl)amino)-5-(trifluoromethyl)pyrimidin-4-yl)-4-(oxetan-3-yl)-3,4-dihydrothieno[2,3-f][1,4]thiazepin-5(2H)-one 1,1-dioxide], the pIC50 is at least 8.30.
In the case of `O=C1c2sc(-c3nc(Nc4ccc(N5CC6(CNC6)C5)cc4C4CC4)ncc3C(F)(F)F)cc2S(=O)(=O)CCN1C1COC1` [Example 377, 7-(2-((2-Cyclopropyl-4-(2,6-diazaspiro[3.3]heptan-2-yl)phenyl)amino)-5-(trifluoromethyl)pyrimidin-4-yl)-4-(oxetan-3-yl)-3,4-dihydrothieno[2,3-f][1,4]thiazepin-5(2H)-one 1,1-dioxide], the negative-log IC50 (pIC50) is at least 8.30.
For the compound `C[C@@H]1CN(c2ccc(Nc3ncc(C(F)(F)F)c(-c4cc5c(s4)C(=O)N(C)CCS5(=O)=O)n3)c(C3CC3)c2)CCN1C` [Example 378, (R)-7-(2-((2-cyclopropyl-4-(3,4-dimethylpiperazin-1-yl)phenyl)amino)-5-(trifluoromethyl)pyrimidin-4-yl)-4-methyl-3,4-dihydrothieno[2,3-f][1,4]thiazepin-5(2H)-one 1,1-dioxide], the pIC50 is at least 8.30.
In the case of `CN1CCS(=O)(=O)c2cc(-c3nc(Nc4ccc(N5C[C@H]6C[C@@H]5CN6)cc4C4CC4)ncc3C(F)(F)F)sc2C1=O` [Example 379, 7-(2-((4-((1R,4R)-2,5-diazabicyclo[2.2.1]heptan-2-yl)-2-cyclopropylphenyl)amino)-5-(trifluoromethyl)pyrimidin-4-yl)-4-methyl-3,4-dihydrothieno[2,3-f][1,4]thiazepin-5(2H)-one 1,1-dioxide], the pIC50 is at least 8.30.
Regarding `C[C@H]1CN(c2ccc(Nc3ncc(C(F)(F)F)c(-c4cc5c(s4)C(=O)N(C)CCS5(=O)=O)n3)c(C3CC3)c2)CCN1` [Example 380, (S)-7-(2-((2-cyclopropyl-4-(3-methylpiperazin-1-yl)phenyl)amino)-5-(trifluoromethyl)pyrimidin-4-yl)-4-methyl-3,4-dihydrothieno[2,3-f][1,4]thiazepin-5(2H)-one 1,1-dioxide], the pIC50 was at least 8.30.
Take `CN1CCS(=O)(=O)c2cc(-c3nc(Nc4cnc(N5C[C@H]6C[C@@H]5CN6)cc4C4CC4)ncc3C(F)(F)F)sc2C1=O` [Example 382, 7-(2-((6-((1R,4R)-2,5-diazabicyclo[2.2.1]heptan-2-yl)-4-cyclopropylpyridin-3-yl)amino)-5-(trifluoromethyl)pyrimidin-4-yl)-4-methyl-3,4-dihydrothieno[2,3-f][1,4]thiazepin-5(2H)-one 1,1-dioxide]: the pIC50 was at least 8.30.
As for `CN1CCS(=O)(=O)c2cc(-c3nc(Nc4cnc(N5CC6CC(C5)N6)cc4C4CC4)ncc3C(F)(F)F)sc2C1=O` [Example 383, 7-(2-((6-(3,6-diazabicyclo[3.1.1]heptan-3-yl)-4-cyclopropylpyridin-3-yl)amino)-5-(trifluoromethyl)pyrimidin-4-yl)-4-methyl-3,4-dihydrothieno[2,3-f][1,4]thiazepin-5(2H)-one 1,1-dioxide], the figure is at least 8.30; as for `O=C1c2sc(-c3nc(Nc4cnc(N5CC6CC(C5)N6)cc4C4CC4)ncc3C(F)(F)F)cc2S(=O)(=O)CCN1C1COC1` [Example 384, 7-(2-((6-(3,6-diazabicyclo[3.1.1]heptan-3-yl)-4-cyclopropylpyridin-3-yl)amino)-5-(trifluoromethyl)pyrimidin-4-yl)-4-(oxetan-3-yl)-3,4-dihydrothieno[2,3-f][1,4]thiazepin-5(2H)-one 1,1-dioxide], at least 8.30; as for `CCc1cc(N2CCN[C@H](C)C2)ccc1Nc1ncc(C(F)(F)F)c(-c2cc3c(s2)C(=O)N(C2COC2)CCS3(=O)=O)n1` [Example 406, (R)-7-(2-((2-ethyl-4-(3-methylpiperazin-1-yl)phenyl)amino)-5-(trifluoromethyl)pyrimidin-4-yl)-4-(oxetan-3-yl)-3,4-dihydrothieno[2,3-f][1,4]thiazepin-5(2H)-one 1,1-dioxide], at least 8.30.
In the case of `CCc1cc(N2CCN[C@@H](CO)C2)ccc1Nc1ncc(C(F)(F)F)c(-c2cc3c(s2)C(=O)N(C2CC2)CCS3(=O)=O)n1` [Example 407, (R)-4-cyclopropyl-7-(2-((2-ethyl-4-(3-(hydroxymethyl)piperazin-1-yl)phenyl)amino)-5-(trifluoromethyl)pyrimidin-4-yl)-3,4-dihydrothieno[2,3-f][1,4]thiazepin-5(2H)-one 1,1-dioxide], the pIC50 was at least 8.30.
Consider `CCc1cc(N2CCN(C)[C@@H](CO)C2)ccc1Nc1ncc(C(F)(F)F)c(-c2cc3c(s2)C(=O)N(C2CC2)CCS3(=O)=O)n1` [Example 408, (R)-4-cyclopropyl-7-(2-((2-ethyl-4-(3-(hydroxymethyl)-4-methylpiperazin-1-yl)phenyl)amino)-5-(trifluoromethyl)pyrimidin-4-yl)-3,4-dihydrothieno[2,3-f][1,4]thiazepin-5(2H)-one 1,1-dioxide], for which the negative logarithm of the IC50 (pIC50) is at least 8.30.
Regarding `CCc1cc(N2CCN(C)[C@@H](CO)C2)ccc1Nc1ncc(C(F)(F)F)c(-c2cc3c(s2)C(=O)N(C2COC2)CCS3(=O)=O)n1` [Example 409, (R)-7-(2-((2-Ethyl-4-(3-(hydroxymethyl)-4-methylpiperazin-1-yl)phenyl)amino)-5-(trifluoromethyl)pyrimidin-4-yl)-4-(oxetan-3-yl)-3,4-dihydrothieno[2,3-f][1,4]thiazepin-5(2H)-one 1,1-dioxide], the negative logarithm of the IC50 (pIC50) was at least 8.30.

These data come from patent US20250144094A1 (Erasca, Inc., priority 2021, published 2025).
